Data published in DBAASP.
Converted amounts (≈) assume the structure as drawn. “And” between values parts separate entries of the source, which are not always exact repeats. Equal values may be shown once.

What was measured:
Assay in all cases: ≥ marks a high value that may be exact or a test limit, other limits are often not marked, values filed in µg/mL are converted to µM
Escherichia coli D21 = system: Escherichia coli D21
[1] = system: Escherichia coli ATCC 25922
[2] = system: Pseudomonas aeruginosa ATCC 27853
[3] = system: Enterococcus faecalis ATCC 19433
[4] = system: Enterobacter cloacae ATCC 49141
[5] = system: Acinetobacter baumannii ATCC 19606
[6] = system: Burkholderia thailandensis
[7] = system: Bacillus subtilis var. niger ATCC 9372
Escherichia coli K91BK = system: Escherichia coli K91BK
[8] = system: Bacillus anthracis Sterne 34F2
[9] = system: Clavibacter michiganensis subsp. michiganensis DSM 46294
[10] = system: Pseudomonas syringae pv. syringae DSM 10604
[11] = system: Pseudomonas corrugata DSM 7228
[12] = system: Pseudomonas syringae pv. tomato DC3000
[13] = system: Pectobacterium carotovorum subsp. carotovorum DSM 30168
[14] = system: Staphylococcus aureus 90857
[15] = system: Xanthomonas vesicatoria DSM 50861
[16] = system: Escherichia coli IFO 3972
[17] = system: Staphylococcus aureus FDA 209P
[18] = system: Neisseria gonorrhoeae FA19
[19] = system: Neisseria gonorrhoeae F62
[20] = system: Staphylococcus aureus ATCC 29213
[21] = system: Candida albicans ATCC 37092
[22] = system: Staphylococcus epidermidis PIA 8400
[23] = system: Enterococcus faecalis ATCC 29212
[24] = system: Escherichia coli HP101BA 7601c
[25] = system: Klebsiella pneumoniae PTCC 1388
[26] = system: Bacillus cereus PTCC 1247
[27] = system: Staphylococcus aureus PTCC 1431
[28] = system: Staphylococcus aureus NCTC 12981
[29] = system: Staphylococcus aureus ATCC 25923
[30] = system: Escherichia coli NCTC 10418

CC(C)C[C@H](NC(=O)[C@H](CCCCN)NC(=O)[C@H](CCCCN)NC(=O)[C@H](CC(C)C)NC(=O)[C@H](CC(C)C)NC(=O)[C@H](CCCCN)NC(=O)[C@H](CCCCN)NC(=O)[C@H](CC(C)C)NC(=O)[C@H](CC(C)C)NC(=O)[C@H](CCCCN)NC(=O)[C@H](CCCCN)NC(=O)[C@H](CC(C)C)NC(=O)[C@H](C)NC(=O)[C@H](CC(=O)O)NC(=O)[C@@H](N)CC(=O)O)C(=O)O [DDALKKLLKKLLKKL]
MIC (Escherichia coli D21): 25 µM (≈ 44.2 µg/mL) | MIC [1]: 50 µM and 75 µM | MIC [2]: 12.5 µM and 25 µM | MIC [3]: ≥ 50 µM | MIC [4]: 6.2 µM (≈ 11 µg/mL) | MIC [5]: 25 µM (≈ 44.2 µg/mL)

CC[C@H](C)[C@H](NC(=O)[C@H](CCCN=C(N)N)NC(=O)[C@@H](NC(=O)[C@@H](NC(=O)[C@H](CCCN=C(N)N)NC(=O)[C@H](CC(C)C)NC(=O)[C@@H](NC(=O)[C@@H](NC(=O)[C@@H]1CCCN1C(=O)CNC(=O)[C@H](Cc1ccc(O)cc1)NC(=O)[C@H](CCCCN)NC(=O)[C@H](CCCCN)NC(=O)[C@@H](NC(=O)[C@H](C)NC(=O)[C@H](Cc1cnc[nH]1)NC(=O)[C@@H](NC(=O)[C@@H](NC(=O)[C@H](CCCCN)NC(=O)[C@H](CCCN=C(N)N)NC(=O)CNC(=O)[C@H](CC(C)C)NC(=O)[C@H](CCCN=C(N)N)NC(=O)[C@H](CCCN=C(N)N)NC(=O)[C@H](CC(C)C)NC(=O)[C@H](C)NC(=O)CNC(C)=O)[C@@H](C)CC)[C@@H](C)O)C(C)C)[C@@H](C)O)C(C)C)[C@@H](C)CC)[C@@H](C)CC)C(=O)N[C@@H](C)C(=O)NCC(N)=O [GALRRLGRKITHAVKKYGPTVLRIIRIAG]
MIC [6]: ≥ 84.1 µM | MIC [7]: 1.31 µM (≈ 4.27 µg/mL) | MIC (Escherichia coli K91BK): 28.7 µM (≈ 93.4 µg/mL) | MIC [8]: 1.19 µM (≈ 3.87 µg/mL)

CC[C@H](C)[C@H](NC(=O)[C@H](CC(C)C)NC(=O)[C@H](CCCCN)NC(=O)[C@H](CCCCN)NC(=O)[C@H](CC(C)C)NC(=O)[C@@H](NC(=O)[C@H](CCCCN)NC(=O)[C@H](CCCCN)NC(=O)[C@@H](NC(=O)[C@@H](NC(=O)[C@H](CCCN=C(N)N)NC(=O)[C@@H](N)CC(C)C)[C@@H](C)CC)[C@@H](C)CC)[C@@H](C)CC)C(N)=O [LRIIKKILKKLI]
MIC [9]: 0.338 µM (≈ 0.5 µg/mL) | MIC [10]: 0.338 µM (≈ 0.5 µg/mL) | MIC [11]: 0.338 µM (≈ 0.5 µg/mL) | MIC [12]: 0.169 µM (≈ 0.25 µg/mL) | MIC [13]: 1.69 µM (≈ 2.5 µg/mL) | MIC [14]: 3 µM (≈ 4.43 µg/mL) | MIC [15]: 0.169 µM (≈ 0.25 µg/mL)

CC(C)[C@H](NC(=O)[C@H](CCCCN)NC(=O)[C@H](CCCN=C(N)N)NC(=O)[C@H](CCCCN)NC(=O)[C@H](CCCCN)NC(=O)[C@H](CCCCN)NC(=O)[C@@H]1CCCN1)C(=O)O [PKKKRKV]
MIC [16]: ≥ 500 µM | MIC [17]: ≥ 500 µM

CC(C)C[C@H](NC(=O)[C@H](CCCNC(=N)N)NC(=O)CNC(=O)CNC(=O)[C@@H](N)CCCNC(=N)N)C(=O)N[C@H]1CSSC[C@@H](C(N)=O)NC(=O)[C@H](C(C)C)NC(=O)[C@@H]2CSSC[C@H](NC(=O)[C@H](Cc3ccc(O)cc3)NC1=O)C(=O)N[C@@H](CCCNC(=N)N)C(=O)N[C@@H](CCCNC(=N)N)C(=O)N[C@@H](CCCNC(=N)N)C(=O)N[C@@H](Cc1ccccc1)C(=O)N2 [RGGRLCYCRRRFCVC]
MIC [18]: 4.11 µM (≈ 7.58 µg/mL) | MIC [19]: 0.58 µM (≈ 1.07 µg/mL)

CC[C@H](C)[C@H](NC(=O)[C@H](CCCN=C(N)N)NC(=O)[C@@H](N)CCCN=C(N)N)C(=O)N[C@@H](CCCN=C(N)N)C(=O)N1CCC[C@H]1C(=O)N[C@@H](CCCN=C(N)N)C(=O)N1CCC[C@H]1C(=O)N1CCC[C@H]1C(=O)N[C@@H](CCCN=C(N)N)C(=O)N[C@@H](CC(C)C)C(=O)N1CCC[C@H]1C(=O)N[C@@H](CCCN=C(N)N)C(=O)N1CCC[C@H]1C(=O)N[C@@H](CCCN=C(N)N)C(=O)N1CCC[C@H]1C(=O)N[C@@H](CCCN=C(N)N)C(=O)N1CCC[C@H]1C(=O)N[C@@H](CC(C)C)C(=O)N1CCC[C@H]1C(=O)N[C@@H](Cc1ccccc1)C(=O)N1CCC[C@H]1C(=O)N[C@@H](CCCN=C(N)N)C(=O)N1CCC[C@H]1C(=O)NCC(=O)O [RRIRPRPPRLPRPRPRPLPFPRPG]
MIC [20]: 2.6 µM (≈ 7.64 µg/mL) | MIC [1]: 0.45 µM (≈ 1.32 µg/mL) | MIC [21]: 1.12 µM (≈ 3.29 µg/mL)

CC[C@H](C)[C@H](NC(=O)[C@H](Cc1c[nH]c2ccccc12)NC(=O)[C@@H](NC(=O)[C@@H](NC(=O)[C@H](Cc1c[nH]c2ccccc12)NC(=O)[C@H](CCCCN)NC(=O)[C@H](CCCCN)NC(=O)[C@@H](NC(=O)[C@@H](N)CCCN=C(N)N)[C@@H](C)O)[C@@H](C)CC)C(C)C)C(N)=O [RTKKWIVWI]
MIC [22]: 13.8 µM (≈ 17 µg/mL) | MIC [23]: 55.3 µM and 110 µM | MIC [20]: 27.7 µM (≈ 34 µg/mL) | MIC [1]: 13.8 µM (≈ 17 µg/mL)

CC[C@H](C)[C@H](NC(=O)[C@H](Cc1cnc[nH]1)NC(=O)[C@H](CCC(N)=O)NC(=O)[C@H](CCSC)NC(=O)[C@H](CCSC)NC(=O)[C@H](CCC(=O)O)NC(=O)[C@H](C)NC(=O)[C@H](C)NC(=O)[C@@H](NC(=O)[C@H](CO)NC(=O)[C@H](C)NC(=O)[C@@H](NC(=O)[C@H](Cc1ccccc1)NC(=O)[C@@H]1CCCN1C(=O)[C@@H](NC(=O)[C@@H](N)C(C)C)[C@@H](C)CC)C(C)C)C(C)C)C(=O)N[C@@H](Cc1ccccc1)C(=O)N[C@H]1CSSC[C@@H](C(=O)O)NC(=O)[C@H](CCCCN)NC(=O)[C@H](CCCN=C(N)N)NC(=O)[C@H](CO)NC(=O)[C@H](C)NC(=O)[C@H](C)NC1=O [VIPFVASVAAEMMQHIFCAASRKC]
MIC [24]: 3.06 µM (≈ 7.99 µg/mL) | MIC [25]: 5.36 µM (≈ 14 µg/mL) | MIC [26]: 4.6 µM (≈ 12 µg/mL) | MIC [27]: 6.51 µM (≈ 17 µg/mL)

NC(=O)[C@H](Cc1c[nH]c2ccccc12)NC(=O)[C@H](CCCN=C(N)N)NC(=O)[C@H](Cc1c[nH]c2ccccc12)NC(=O)[C@H](CCCN=C(N)N)NC(=O)[C@@H](N)Cc1c[nH]c2ccccc12 [WRWRW]
MIC [1]: 16.9 µM (≈ 15 µg/mL) | MIC [2]: 56.2 µM (≈ 49.9 µg/mL) | MIC [28]: ≥ 72 µM | MIC [29]: 11.2 µM (≈ 9.99 µg/mL) | MIC [30]: ≥ 72 µM
